This note sets out measurements from ChEMBL document CHEMBL4513141, “CO-ADD screening of NIH (USA) - Clinical Collection” (2021).

One experiment deals with HEK293. Briefly: cells. The format is functional, Homo sapiens, ATCC CRL1573. Conditions: ASSAY_TEST Inhibition of Cell Viability, detection method Resazurin, Fluorescence (ex560/em590), MEDIA DMEM with 10% FBS, plate type 384well, TC, CORNING #3712, time 18 hr. For orientation: The colour change of resazurin is a common sign of viable cells or microbes.
The test system of experiment [1] is Staphylococcus aureus. The conditions noted are these: ASSAY_TEST Inhibition of Bacterial Growth; detection method Absorption (OD600); MEDIA CAMHB; plate type 384well; NBS; CORNING #3640; time 18 hr.
Description: (§1) Antibacterial activity against Staphylococcus aureus MRSA ATCC 43300 (CO-ADD:GP_020); MIC in CAMBH media, using NBS plates, by OD(600)
Experiment [2] has as its system Pseudomonas aeruginosa. Conditions: ASSAY_TEST Inhibition of Bacterial Growth; detection method Absorption (OD600); MEDIA CAMHB; plate type 384well; NBS; CORNING #3640; time 18 hr.
Description: (§2) Antibacterial activity against Pseudomonas aeruginosa ATCC 27853 (CO-ADD:GN_042); MIC in CAMBH media using NBS plates, by OD(600)
Experiment [3] deals with Acinetobacter baumannii. Conditions: ASSAY_TEST Inhibition of Bacterial Growth; detection method Absorption (OD600); MEDIA CAMHB; plate type 384well; NBS; CORNING #3640; time 18 hr.
Description: (§3) Antibacterial activity against Acinetobacter baumannii ATCC 19606 (CO-ADD:GN_034); MIC in CAMBH media using NBS plates, by OD600
Experiment [4] has as its system Escherichia coli. Briefly: microbe, parasite or virus in culture. Conditions: ATCC 25922, 18 h, ASSAY_TEST Inhibition of Bacterial Growth, detection method Absorption (OD600), MEDIA CAMHB, plate type 384well, NBS, CORNING #3640.
Description: (§4) Antibacterial activity against Escherichia coli ATCC 25922 (CO-ADD:GN_001); MIC in CAMBH media using NBS plates, by OD(600)
In experiment [5] the test system is Klebsiella pneumoniae. Briefly: microbe, parasite or virus in culture. The conditions noted are these: ATCC 700603, 18 h, ASSAY_TEST Inhibition of Bacterial Growth, detection method Absorption (OD600), MEDIA CAMHB, plate type 384well, NBS, CORNING #3640.
Description: (§5) Antibacterial activity against Klebsiella pneumoniae MDR ATCC 70063 (CO-ADD:GN_003); MIC in CAMBH media using NBS plates, by OD(600)
The subject of experiment [6] is Candida albicans. Briefly: microbe, parasite or virus in culture. Conditions: ATCC 90028, ASSAY_TEST Inhibition of Fungal Growth, detection method Absorption (OD530), plate type 384well, NBS, CORNING #3640.
Description: (§6) Antifungal activity against Candida albicans ATCC 90028 (CO-ADD:FG_001); MIC in YNB media using NBS plates, by OD630
Experiment [7] deals with Escherichia coli. The conditions noted are these: ASSAY_TEST Inhibition of Bacterial Growth; detection method Absorption (OD600); MEDIA CAMHB; plate type 384well; NBS; CORNING #3640; time 18 hr.
Description: as §4
In experiment [8] the test system is Klebsiella pneumoniae. Conditions: ASSAY_TEST Inhibition of Bacterial Growth; detection method Absorption (OD600); MEDIA CAMHB; plate type 384well; NBS; CORNING #3640; time 18 hr.
Description: as §5
In experiment [9] the test system is Candida albicans. The conditions noted are these: ASSAY_TEST Inhibition of Fungal Growth; detection method Absorption (OD530); plate type 384well; NBS; CORNING #3640.
Description: as §6
For experiment [10], the system named is Staphylococcus aureus. Briefly: microbe, parasite or virus in culture. Conditions: ATCC 43300, 18 h, ASSAY_TEST Inhibition of Bacterial Growth, detection method Absorption (OD600), MEDIA CAMHB, plate type 384well, NBS, CORNING #3640.
Description: as §1
For experiment [11], the system named is Pseudomonas aeruginosa. Briefly: microbe, parasite or virus in culture. The conditions noted are these: ATCC 27853, 18 h, ASSAY_TEST Inhibition of Bacterial Growth, detection method Absorption (OD600), MEDIA CAMHB, plate type 384well, NBS, CORNING #3640.
Description: as §2
Experiment [12] concerns Acinetobacter baumannii. Briefly: microbe, parasite or virus in culture. Conditions: ATCC 19606, 18 h, ASSAY_TEST Inhibition of Bacterial Growth, detection method Absorption (OD600), MEDIA CAMHB, plate type 384well, NBS, CORNING #3640.
Description: as §3
The mark [13] stands for this setting: Homo sapiens, ATCC CRL1573, HEK293.

In brackets after ≈: the same amount, converted by molar mass. A value given as a limit tells only on which side of the number the result lay.

Description for Cryptococcus neoformans: Antifungal activity against Cryptococcus neoformans H99 ATCC 208821 (CO-ADD:FG_002); MIC in YNB media using NBS plates, by Resazurin OD(600-570)

Broadly, the CC50 is the concentration that lowers cell viability or growth by half. A higher CC50 goes with better tolerance by the cells. With `C[C@H]1COc2c(N3CCN(C)CC3)c(F)cc3c(=O)c(C(=O)O)cn1c23.C[C@H]1COc2c(N3CCN(C)CC3)c(F)cc3c(=O)c(C(=O)O)cn1c23.O` [LEVOFLOXACIN], the cytotoxic concentration (CC50) in the experiment on HEK293 (setting [13]) is above 10 µM. The MIC with Staphylococcus aureus [1] was 0.625 µM; with Pseudomonas aeruginosa [2], 0.625 µM; against Acinetobacter baumannii [3] it was 2.5 µM; against Cryptococcus neoformans it was above 10 µM; against Escherichia coli [4], at most 0.0781 µM; against Klebsiella pneumoniae [5], 2.5 µM. Moreover, the MIC in the experiment on Candida albicans [6] is above 10 µM.
Regarding `COc1cccc2c1C(=O)c1c(O)c3c(c(O)c1C2=O)C[C@@](O)(C(C)=O)C[C@@H]3OC1CC(N)C(O)C(C)O1.Cl` (stereo not given in full), the 50% cytotoxic concentration (CC50) in the experiment with HEK293 is 0.148 µM. Further, the MIC in the experiment on Staphylococcus aureus [1] was 5 µM; in the experiment on Escherichia coli [7], above 10 µM; with Klebsiella pneumoniae [8] it was above 10 µM; with Pseudomonas aeruginosa [2], above 10 µM; in the experiment on Acinetobacter baumannii [3], above 10 µM; with Candida albicans [9] it was above 10 µM. The MIC in the experiment on Cryptococcus neoformans was above 10 µM.
`CC1(C)SC2C(NC(=O)Cc3ccccc3)C(=O)N2C1C(=O)O` (stereo not given) gave a half-maximal cytotoxic concentration (CC50) with HEK293 (setting [13]) above 10 µM. The MIC in the experiment with Cryptococcus neoformans, against Staphylococcus aureus [10], in the experiment on Escherichia coli [4], in the experiment with Klebsiella pneumoniae [5], with Pseudomonas aeruginosa [11] and in the experiment on Acinetobacter baumannii [12] was above 10 µM each time. In the experiment on Candida albicans [6], this compound registered an MIC above 10 µM.
On to `CO[C@@]1(NC(=O)Cc2cccs2)C(=O)N2C(C(=O)O)=C(COC(N)=O)CS[C@@H]21` [CEFOXITIN SODIUM], for which the half-maximal cytotoxic concentration (CC50) with HEK293 (setting [13]) was above 10 µM. Moreover, the MIC was above 10 µM in the experiment on Cryptococcus neoformans; above 10 µM against Staphylococcus aureus [10]; 10 µM against Escherichia coli [4]; above 10 µM against Klebsiella pneumoniae [5]; above 10 µM against Pseudomonas aeruginosa [11]; above 10 µM against Acinetobacter baumannii [12]. In the experiment with Candida albicans [6], the MIC is above 10 µM.
As for `CCCCCCNC(=O)n1cc(F)c(=O)[nH]c1=O` [CARMOFUR], the cytotoxic concentration (CC50) in the experiment with HEK293 (setting [13]) is above 10 µM. The MIC against Cryptococcus neoformans was 5 µM (≈ 1.29 µg/mL); against Staphylococcus aureus [10], 2.5 µM (≈ 0.643 µg/mL); in the experiment with Escherichia coli [4], above 10 µM; against Klebsiella pneumoniae [5], above 10 µM; with Pseudomonas aeruginosa [11], above 10 µM; against Acinetobacter baumannii [12], above 10 µM. For the same compound, in the experiment on Candida albicans [6], the MIC was above 10 µM.
Regarding `CON=C(C(=O)NC1C(=O)N2C(C(=O)O)=C(COC(C)=O)CSC12)c1csc(N)n1` (stereo not given), the CC50 in the experiment with HEK293 (setting [13]) was above 10 µM. The MIC with Cryptococcus neoformans is above 10 µM; with Staphylococcus aureus [10] it was above 10 µM; with Escherichia coli [4], 0.312 µM (≈ 0.142 µg/mL); against Klebsiella pneumoniae [5] it was above 10 µM; in the experiment on Pseudomonas aeruginosa [11], above 10 µM; against Acinetobacter baumannii [12], above 10 µM. Besides, in the experiment with Candida albicans [6], the MIC is above 10 µM.
In the experiment on HEK293 (setting [13]), `CCc1nc(N)nc(N)c1-c1ccc(Cl)cc1` [PYRIMETHAMINE] yielded a CC50 above 10 µM. In addition, the MIC with Cryptococcus neoformans is above 10 µM; against Staphylococcus aureus [10], 5 µM (≈ 1.24 µg/mL); in the experiment on Escherichia coli [4], above 10 µM; in the experiment on Klebsiella pneumoniae [5] it was above 10 µM; against Pseudomonas aeruginosa [11] it was above 10 µM; against Acinetobacter baumannii [12], above 10 µM. In the experiment with Candida albicans [6], this compound showed an MIC above 10 µM.
`CO[C@H]1/C=C/O[C@@]2(C)Oc3c(C)c(O)c4c(c3C2=O)C2=NC3(CCN(CC(C)C)CC3)NC2=C(NC(=O)/C(C)=C\C=C\[C@H](C)[C@H](O)[C@@H](C)[C@@H](O)[C@@H](C)[C@H](OC(C)=O)[C@@H]1C)C4=O` [RIFABUTIN] yielded a CC50 in the experiment on HEK293 (setting [13]) above 10 µM. Also, the MIC in the experiment with Cryptococcus neoformans is above 10 µM; with Staphylococcus aureus [10], at most 0.0781 µM; in the experiment with Escherichia coli [4], 5 µM (≈ 4.24 µg/mL); in the experiment on Klebsiella pneumoniae [5], above 10 µM; in the experiment on Pseudomonas aeruginosa [11], 0.156 µM (≈ 0.132 µg/mL); against Acinetobacter baumannii [12], 10 µM (≈ 8.47 µg/mL). Further, in the experiment on Candida albicans [6], the MIC is above 10 µM.
In turn, `CC(C)n1c(/C=C/C(O)CC(O)CC(=O)O)c(-c2ccc(F)cc2)c2ccccc21` (stereo not given) [FLUVASTATIN] showed a half-maximal cytotoxic concentration (CC50) in the experiment on HEK293 (setting [13]) above 10 µM. Besides, the MIC in the experiment on Cryptococcus neoformans, against Staphylococcus aureus [10], in the experiment on Escherichia coli [4], against Klebsiella pneumoniae [5], with Pseudomonas aeruginosa [11] and against Acinetobacter baumannii [12] was above 10 µM each time. Also, the MIC in the experiment with Candida albicans [6] stood at 5 µM (≈ 2.06 µg/mL).
Take `O=c1c2ccccc2[se]n1-c1ccccc1` [EBSELEN]: the cytotoxic concentration (CC50) in the experiment on HEK293 (setting [13]) is above 10 µM. Besides, the MIC against Cryptococcus neoformans was 2.5 µM (≈ 0.685 µg/mL); against Staphylococcus aureus [10] it was above 10 µM; against Escherichia coli [4], above 10 µM; with Klebsiella pneumoniae [5], above 10 µM; against Pseudomonas aeruginosa [11], above 10 µM; against Acinetobacter baumannii [12], above 10 µM. The MIC against Candida albicans [6] turned out to be 5 µM (≈ 1.37 µg/mL).
